The results in this text go back to US11999695B2, “YAP1 inhibitors that target the interaction of YAP1 with OCT4” (H. LEE MOFFITT CANCER CENTER AND RESEARCH INSTITUTE, INC., priority 2016, dated 2024).

Sequence of YAP1:OCT4 (P46937 whole entry): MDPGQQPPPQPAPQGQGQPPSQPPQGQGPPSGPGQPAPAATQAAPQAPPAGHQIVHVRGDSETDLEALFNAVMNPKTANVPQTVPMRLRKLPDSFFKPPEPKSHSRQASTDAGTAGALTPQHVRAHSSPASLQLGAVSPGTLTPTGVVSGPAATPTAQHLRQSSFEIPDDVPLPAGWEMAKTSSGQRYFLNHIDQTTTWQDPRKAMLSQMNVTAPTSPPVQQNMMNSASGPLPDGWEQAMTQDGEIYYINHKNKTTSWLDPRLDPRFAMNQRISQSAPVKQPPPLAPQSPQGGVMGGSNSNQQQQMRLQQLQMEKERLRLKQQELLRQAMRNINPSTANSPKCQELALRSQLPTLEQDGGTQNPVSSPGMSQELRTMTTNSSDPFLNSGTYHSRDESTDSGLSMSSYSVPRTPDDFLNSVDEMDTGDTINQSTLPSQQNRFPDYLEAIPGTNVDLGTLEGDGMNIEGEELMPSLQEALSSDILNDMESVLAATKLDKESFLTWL
T1 sequence (P46937 whole entry): as above

One experiment has as its target T1, binding of Oct4 to YAP1 (Homo sapiens, UniProt P46937).
T1 construct: Lysates were prepared from the cells, and immunoprecipitated with an antibody to OCt4; endogenous in cells; host or cells: A549 and H1650 cells
Nature of the experiment: Immunoprecipitation-Western blot of Oct4-YAP1 binding (FIG. 15). Type of experiment: cell-based. The settings on record: A549 cells; 5 μM; 72 hours. Here is the method: FIG. 15 is a group of gel images showing peptidomimetic compounds SR2-022, SR2-030, and SR2-033 reduced YAP1-Oct4 interaction as detected by IP-WB. An immunoprecipitation-Western blot experiment was conducted to assess if the indicated compounds could disrupt the binding of Oct4 to YAP1. IP-western blots were conducted using the protocols described in Bora-Singhal et al, 2015. Essentially, cells were treated with 5 μM of the indicated compounds for 72 hours. Lysates were prepared from the cells, and immunoprecipitated with an antibody to OCt4, or a control IgG. Lysates as well as the immunoprecipitates were resoled by a polyacrylamide gel and a western blot was conducted using an antibody to YAP1.
For orientation: A western blot detects proteins with antibodies after separation by electrophoresis.
`O=C(CC1CCN(C(=O)CCc2ccccc2)CC1)N[C@@H](Cc1ccc(OCc2ccccc2)cc1)C(=O)O` [SR2-022, (S)-3-(4-(Benzyloxy)phenyl)-2-(2-(1-(3-phenylpropanoyl)piperidin-4-yl)acetamido)propan-oic acid]: the “YAP1-Oct4 interaction detected by IP-WB” value is “completely abolished”.

The experiment is the same for the next values; noted with them: H1650 cells; 5 μM; 72 hours.
Consider `O=C(CC1CCN(C(=O)CCc2ccccc2)CC1)N[C@@H](Cc1ccc(OCc2ccccc2)cc1)C(=O)O` [SR2-022, (S)-3-(4-(Benzyloxy)phenyl)-2-(2-(1-(3-phenylpropanoyl)piperidin-4-yl)acetamido)propan-oic acid], for which the “YAP1-Oct4 interaction detected by IP-WB” value was “significantly reduced”.

Another experiment addresses YAP1:OCT4 (Homo sapiens, UniProt P46937). Nature of the experiment: In vitro YAP1:OCT4 ELISA binding assay. The settings on record: YAP1:OCT4 disruption. Here is the method: Activities of Compounds in the In Vitro YAP1:OCT4 ELISA Binding Assay
Selected compounds were assayed in a YAP1:OCT4 binding assay.
(ELISA stands for enzyme-linked immunosorbent assay.)
On to `COC(=O)[C@H](Cc1ccc(OCc2ccccc2)cc1)NC(=O)CC1CCN(C(=O)OC(C)(C)C)CC1` [SR1-083, tert-Butyl (S)-4-(2-((3-(4-(benzyloxy)phenyl)-1-methoxy-1-oxopropan-2-yl)amino)-2-oxoethyl)piperidine-1-carboxylate], for which the IC50 (usually the concentration that gives 50% inhibition) fell in the range of 1 to 10 µM. The same measure, in the same setting: the value for `COC(=O)[C@H](Cc1ccc(OCc2ccccc2)cc1)NC(=O)CN1CCN(C(=O)OC(C)(C)C)CC1` [SR1-090, tert-Butyl (S)-4-(2-((3-(4-(benzyloxy)phenyl)-1-methoxy-1-oxopropan-2-yl)amino)-2-oxoethyl)piperazine-1-carboxylate] was more than 10 µM; that for `COC(=O)[C@H](Cc1ccc(OCc2ccccc2)cc1)NC(=O)CN1CCN(C(=O)[C@@H]2CCCN2C(=O)OCC2c3ccccc3-c3ccccc32)CC1` [SR1-094, Fmoc-Pro-piperazineacetic acid Tyr(bzl)-OMe] was more than 10 µM. For the compound `COC(=O)[C@H](Cc1ccc(OCc2ccccc2)cc1)NC(=O)CC1CCN(Cc2ccccc2)CC1` [SR1-117, Methyl (S)-3-(4-(benzyloxy)phenyl)-2-(2-(1-benzylpiperidin-4-yl)acetamido)propanoate], the IC50 is more than 10 µM. As for `COC(=O)[C@H](Cc1ccc(OCc2ccccc2)cc1)NC(=O)CC1CCN(C(=O)c2ccccc2)CC1` [SR1-118, Methyl (S)-2-(2-(1-benzoylpiperidin-4-yl)acetamido)-3-(4-(benzyloxy)phenyl)propanoate], the IC50 is 1 to 10 µM.

`COC(=O)[C@H](Cc1ccc(OCc2ccccc2)cc1)NC(=O)CC1CCN(C(=O)CCc2ccccc2)CC1` [SR1-119, Methyl (S)-3-(4-(benzyloxy)phenyl)-2-(2-(1-(3-phenylpropanoyl)piperidin-4-yl)acetamido)propanoate] registered an IC50 of 1 to 10 µM. The same measure, in the same setting: the value for `COC(=O)[C@H](Cc1ccc(OCc2ccccc2)cc1)NC(=O)CC1CCN(C(=O)Cc2ccccc2)CC1` [SR1-122, Methyl (S)-3-(4-(benzyloxy)phenyl)-2-(2-(1-(2-phenylacetyl)piperidin-4-yl)acetamido)-propanoate] was 1 to 10 µM; that for `CC(C)(C)OC(=O)N1CCC(CC(=O)N[C@@H](Cc2ccc(OCc3ccccc3)cc2)C(=O)O)CC1` [SR1-152, (S)-3-(4-(benzyloxy)phenyl)-2-(2-(1-(tert-butoxycarbonyl)piperidin-4-yl)acetamido)-propanoic acid] was 1 to 10 µM. Still for that read-out and setting: the value for `CC(C)NC(=O)[C@H](Cc1ccc(OCc2ccccc2)cc1)NC(=O)CC1CCN(C(=O)OC(C)(C)C)CC1` [SR1-167, tert-butyl (S)-4-(2-((3-(4-(benzyloxy)phenyl)-1-(isopropylamino)-1-oxopropan-2-yl)amino)-2-oxoethyl)piperidine-1-carboxylate] was 1 to 10 µM.

For the compound `COC(=O)[C@H](Cc1ccc(OCc2ccccc2)cc1)NC(=O)CC1CCN(C(=O)CCc2ccc(Cl)cc2)CC1` [SR2-004, Methyl (S)-3-(4-(benzyloxy)phenyl)-2-(2-(1-(3-(4-chlorophenyl)propanoyl)piperidin-4-yl)acetamido)propanoate], the IC50 is less than 10 µM. For `COC(=O)[C@H](Cc1ccc(OCc2ccccc2)cc1)NC(=O)CC1CCN(C(=O)CCc2ccccc2OC)CC1` [SR2-006, Methyl (S)-3-(4-(benzyloxy)phenyl)-2-(2-(1-(3-(2-methoxyphenyl)propanoyl)piperidin-4-yl)acetamido)propanoate], the IC50 lay in the range of 1 to 10 µM. The same measure, in the same setting: the value for `CCOc1ccc(CCC(=O)N2CCC(CC(=O)N[C@@H](Cc3ccc(OCc4ccccc4)cc3)C(=O)OC)CC2)cc1` [SR2-007, Methyl (S)-3-(4-(benzyloxy)phenyl)-2-(2-(1-(3-(4-ethoxyphenyl)propanoyl)piperidin-4-yl)acetamido)propanoate] was 1 to 10 µM; that for `COC(=O)[C@H](Cc1ccc(OCc2ccccc2)cc1)NC(=O)CC1CCN(C(=O)CCc2ccc(F)cc2)CC1` [SR2-008, Methyl (S)-3-(4-(benzyloxy)phenyl)-2-(2-(1-(3-(4-fluorophenyl)propanoyl)piperidin-4-yl)acetamido)propanoate] was 1 to 10 µM. `COC(=O)[C@H](Cc1ccc(OCc2ccccc2)cc1)NC(=O)CC1CCN(C(=O)CCc2ccc(C(F)(F)F)cc2)CC1` [SR2-009, Methyl (S)-3-(4-(benzyloxy)phenyl)-2-(2-(1-(3-(4-(trifluoromethyl)phenyl)propanoyl)-piperidin-4-yl)acetamido)propanoate] had an IC50 of 1 to 10 µM.

Consider `COC(=O)[C@H](Cc1ccc(OCc2ccccc2)cc1)NC(=O)CC1CCN(C(=O)CCc2cccc(F)c2)CC1` [SR2-010, Methyl (S)-3-(4-(benzyloxy)phenyl)-2-(2-(1-(3-(3-fluorophenyl)propanoyl)piperidin-4-yl)acetamido)propanoate], for which the IC50 is less than 10 µM. On the same count and under the same terms, then `O=C(CC1CCN(C(=O)CCc2ccccc2)CC1)N[C@@H](Cc1ccc(OCc2ccccc2)cc1)C(=O)NC1CC1` [SR2-015, (S)-3-(4-(Benzyloxy)phenyl)-N-cyclopropyl-2-(2-(1-(3-phenylpropanoyl)piperidin-4-yl)acetamido)propanamide], with 1 to 10 µM; and `O=C(CC1CCN(C(=O)CCc2ccccc2)CC1)N[C@@H](Cc1ccc(OCc2ccccc2)cc1)C(=O)NC1CCC1` [SR2-016, (S)-3-(4-(Benzyloxy)phenyl)-N-cyclobutyl-2-(2-(1-(3-phenylpropanoyl)piperidin-4-yl)acetamido)propanamide], with 1 to 10 µM; and `O=C(CC1CCN(C(=O)CCc2ccccc2)CC1)N[C@@H](Cc1ccc(OCc2ccccc2)cc1)C(=O)NCC1CC1` [SR2-019, (S)-3-(4-(benzyloxy)phenyl)-N-(cyclopropylmethyl)-2-(2-(1-(3-phenylpropanoyl)piperidin-4-yl)acetamido)propanamide], with 1 to 10 µM. Still for that read-out and setting: the value for `O=C(CC1CCN(C(=O)CCc2ccccc2)CC1)N[C@@H](Cc1ccc(OCc2ccccc2)cc1)C(=O)O` [SR2-022, (S)-3-(4-(Benzyloxy)phenyl)-2-(2-(1-(3-phenylpropanoyl)piperidin-4-yl)acetamido)propan-oic acid] was less than 10 µM. Same read-out and setting: then `COC(=O)[C@H](Cc1ccc(OCc2ccccc2)cc1)NC(=O)CC1CCN(C(=O)CC(c2ccccc2)c2ccccc2)CC1` [SR2-029, Methyl (S)-3-(4-(benzyloxy)phenyl)-2-(2-(1-(3,3-diphenylpropanoyl)piperidin-4-yl)acetamido)propanoate], with less than 10 µM; and `COC(=O)[C@H](Cc1ccc(OCc2ccccc2)cc1)NC(=O)CC1CCN(C(=O)CCc2cccc(Cl)c2)CC1` [SR2-032, Methyl (S)-3-(4-(benzyloxy)phenyl)-2-(2-(1-(3-(3-chlorophenyl)propanoyl)piperidin-4-yl)acetamido)propanoate], with less than 10 µM. As to `COC(=O)[C@H](Cc1ccc(OCc2ccccc2)cc1)NC(=O)CC1CCN(C(=O)CCc2cccc(C)c2)CC1` [SR2-036, Methyl (S)-3-(4-(benzyloxy)phenyl)-2-(2-(1-(3-(m-tolyl)propanoyl)piperidin-4-yl)acetamido)propanoate], the IC50 fell in the range of 1 to 10 µM. In turn, `COC(=O)[C@H](Cc1ccc(OCc2ccccc2)cc1)NC(=O)CC1CCN(C(=O)CCc2cc(Cl)cc(Cl)c2)CC1` [SR2-106, Methyl (S)-3-(4-(benzyloxy)phenyl)-2-(2-(1-(3-(3,5-dichlorophenyl)propanoyl)piperidin-4-yl)acetamido)propanoate] came in with an IC50 of less than 10 µM. The same measure, in the same setting: the value for `COC(=O)[C@H](Cc1ccc(OCc2ccccc2)cc1)NC(=O)CC1CCN(C(=O)CCc2cccc(Br)c2)CC1` [SR2-107, Methyl (S)-3-(4-(benzyloxy)phenyl)-2-(2-(1-(3-(3-bromophenyl)propanoyl)piperidin-4-yl)acetamido)propanoate] was less than 10 µM. As to `O=C(CC1CCN(C(=O)CCc2ccc(Cl)c(Cl)c2)CC1)N[C@@H](Cc1ccc(OCc2ccccc2)cc1)C(=O)O` [SR2-113, (S)-3-(4-(Benzyloxy)phenyl)-2-(2-(1-(3-(3,4-dichlorophenyl)propanoyl)piperidin-4-yl)acetamido)propanoic acid], the half-maximal inhibitory concentration (IC50) is less than 10 µM. The same measure, in the same setting: the value for `N#Cc1ccc(CCC(=O)N2CCC(CC(=O)N[C@@H](Cc3ccc(OCc4ccccc4)cc3)C(=O)O)CC2)cc1` [SR2-114, (S)-3-(4-(Benzyloxy)phenyl)-2-(2-(1-(3-(4-cyanophenyl)propanoyl)piperidin-4-yl)acetamido)propanoic acid] was less than 10 µM.

Take `O=C(CC1CCN(C(=O)CCc2cccc(F)c2)CC1)N[C@@H](Cc1ccc(OCc2ccccc2)cc1)C(=O)O` [SR2-117, (S)-3-(4-(Benzyloxy)phenyl)-2-(2-(1-(3-(3-fluorophenyl)propanoyl)piperidin-4-yl)acetamido)propanoic acid]: the IC50 was less than 10 µM. Same read-out and setting: the value for `O=C(CC1CCN(C(=O)CCc2ccc(F)cc2)CC1)N[C@@H](Cc1ccc(OCc2ccccc2)cc1)C(=O)O` [SR2-120, (S)-3-(4-(Benzyloxy)phenyl)-2-(2-(1-(3-(4-fluorophenyl)propanoyl)piperidin-4-yl)acetamido)propanoic acid] was less than 10 µM; that for `CCOc1ccc(CCC(=O)N2CCC(CC(=O)N[C@@H](Cc3ccc(OCc4ccccc4)cc3)C(=O)O)CC2)cc1` [SR2-122, (S)-3-(4-(Benzyloxy)phenyl)-2-(2-(1-(3-(4-ethoxyphenyl)propanoyl)piperidin-4-yl)acetamido)propanoic acid] was less than 10 µM.
